Experimental data from the NIST ThermoML archive (doi:10.1021/je800636k).

Key:
[1] = 101 kPa, Liquid; for electrical conductivity: Qcond 2400 VWR international / cell constant, 1.05; for viscosity: Concentric cylinders viscometry; for mass density: Vibrating tube method
[2] = xn = mol fraction of the nth substance listed; details: 101 kPa, Liquid, x2 = 0; for electrical conductivity: Qcond 2400 VWR international / cell constant, 1.05; for viscosity: Concentric cylinders viscometry; for mass density: Vibrating tube method

CCCCn1cc[n+](C)c1C.[N-]=[N+]=[N-] [1-butyl-2,3-dimethylimidazolium azide]
[1]
Details | electrical conductivity [S/m] | mass density [kg/m3] | viscosity [mPa·s]
303.15 K | 0.0488 | – | –
308.15 K | 0.0756 | – | –
313.15 K | 0.112 | 1070.46 | 338.19
318.15 K | 0.159 | – | –
323.15 K | 0.219 | 1065.14 | 176.04
328.15 K | 0.294 | – | –
333.15 K | 0.383 | 1059.83 | 101.63
338.15 K | 0.49 | – | –
343.15 K | 0.614 | 1054.52 | 63.6
348.15 K | 0.756 | – | –
353.15 K | 0.918 | 1049.21 | 42.44
358.15 K | 1.1 | – | –
363.15 K | 1.3 | 1043.9 | 29.82
368.15 K | 1.52 | – | –
373.15 K | – | 1038.59 | 21.87

CCCCn1cc[n+](C)c1C.F[B-](F)(F)F [1-butyl-2,3-dimethylimidazolium tetrafluoroborate]
[1]
Details | electrical conductivity [S/m] | mass density [kg/m3] | viscosity [mPa·s]
303.15 K | 0.0758 | – | –
308.15 K | 0.106 | – | –
313.15 K | 0.145 | 1182.05 | 364.17
318.15 K | 0.194 | – | –
323.15 K | 0.254 | 1175.57 | 204.79
328.15 K | 0.327 | – | –
333.15 K | 0.415 | 1169.08 | 124.34
338.15 K | 0.518 | – | –
343.15 K | 0.639 | 1162.6 | 80.35
348.15 K | 0.779 | – | –
353.15 K | 0.939 | 1156.12 | 54.65
358.15 K | 1.12 | – | –
363.15 K | 1.32 | 1149.64 | 38.8
368.15 K | 1.55 | – | –
373.15 K | – | 1143.15 | 28.56

CCCCn1cc[n+](C)c1C.F[B-](F)(F)F [1-butyl-2,3-dimethylimidazolium tetrafluoroborate] + CCCCn1cc[n+](C)c1C.[N-]=[N+]=[N-]
[2]
Details | electrical conductivity [S/m] | mass density [kg/m3] | viscosity [mPa·s]
303.15 K | 0.0758 | – | –
308.15 K | 0.106 | – | –
313.15 K | 0.145 | 1182.05 | 364.17
318.15 K | 0.194 | – | –
323.15 K | 0.254 | 1175.57 | 204.79
328.15 K | 0.327 | – | –
333.15 K | 0.415 | 1169.08 | 124.34
338.15 K | 0.518 | – | –
343.15 K | 0.639 | 1162.6 | 80.35
348.15 K | 0.779 | – | –
353.15 K | 0.939 | 1156.12 | 54.65
358.15 K | 1.12 | – | –
363.15 K | 1.32 | 1149.64 | 38.8
368.15 K | 1.55 | – | –
373.15 K | – | 1143.15 | 28.56
